# Earlier results, collected in patent publication US20210077514A1, “Nutraceutical Composition for Improving Overall Health” (priority 2019, published 2021).
# Read-outs that look alike come from different tables or passages of the source.
# How the values were obtained:
# [1] = aged mice
# [2] = test system: photoreceptor; conditions: in vivo
# [3] = AD-model mice
# [4] = FXN-KO mouse
# [5] = in vivo
# [6] = test system: brain cell
# [7] = not given; remark: listed apart in the source
# [8] = not given; remark: listed apart in the source
# [9] = aged mice, one week's treatment
# [10] = not given; remark: listed apart in the source
# [11] = 0.08% astaxanthin fed, vs control group
# [12] = test system: superoxide dismutase, thioredoxin reductase, paraoxonase; conditions: oxidative-induced rabbits, diet supplement
# [13] = aging mice, long-term treatment
# [14] = young healthy adult female human subjects
# [15] = test system: lipid peroxidation; conditions: ethanol induced gastric ulcer rats and skin cancer rats; astaxanthin and its esters
# [16] = compared to canthaxanthin and β-carotene
# [17] = diabetic mice vs control group
# [18] = spontaneously hypertensive corpulent rats; mice on high fat plus high fructose diets
# [19] = patients with T2DM
# [20] = in vivo; remark: listed apart in the source
# [21] = test system: senescent cells; conditions: H2O2-induced, via activation of AMPK pathway
# [22] = chronic heart failure patients
# [23] = test system: HepG2 cells; conditions: HepG2 cells and primary hepatocytes
# [24] = test system: MCF-7 breast cancer cells
# [25] = from the liver into the bile
# [26] = test system: adipocytes; conditions: mouse, in vivo
# [27] = type 2 diabetes and mild to moderate depression
# [28] = 850 mg twice daily, mean follow-up ~3 years
# [29] = mouse model
# [30] = after 3 years
# [31] = test system: diploid fibroblasts and mesenchymal stem cells
# [32] = not given; remark: listed apart in the source
# [33] = test system: nematodes
# [34] = 8-10 years after therapy
# [35] = test system: leukaemia cells
# [36] = test system: glial cells
compound,measurement,setting,value
"NC(=O)c1ccc[n+]([C@@H]2O[C@H](COP(=O)([O-])O)[C@@H](O)[C@H]2O)c1 [Nicotinamide Mononucleotide, nicotinamide mononucleotide]",aortic stiffness,[1],normalizing the aortic stiffness
same,degeneration of photoreceptor,[2],prevent degeneration of photoreceptor
same,cognition,[3],restore cognition within AD-model mice
same,cardiac function,[4],restored near the normal levels
same,NAD+ levels within the heart,[5],increase the NAD+ levels within the heart
same,protection of heart from I/R injuries,[5],protect the heart from injuries of I/R
same,homeostasis of mitochondria and biochemical markers of muscle-health,"22 months old mice, to level of six months old mice",restore the homeostasis of mitochondria
same,age-related physiological declines,old mice,reduce the age-related physiological declines
same,death rate of brain cell,[6],lower the death rate of brain cell
same,intolerance of glucose,[7]; in vivo,reversal of the intolerance of glucose
same,levels of NAD+,[7]; liver and muscle,significantly increased
same,impaired tolerance of glucose,[8]; only one dose,sufficient in normalizing the impaired tolerance of the glucose
same,levels of NAD+,[8]; over sixty minutes,significant rises within the levels of NAD+
same,cells after DNA damage repair,[9],indistinguishable from the cells of the young mice
CC1=C(/C=C/C(C)=C/C=C/C(C)=C/C=C/C=C(C)/C=C/C=C(C)/C=C/C2=C(C)C(=O)[C@@H](O)CC2(C)C)C(C)(C)C[C@H](O)C1=O [astaxanthin],activity of natural killer cells,[10]; eight week supplementation,improved activity of natural killer cells
same,blood levels of astaxanthin,[10]; in vivo,increased blood levels of astaxanthin
same,heart mitochondrial membrane potential and contractility index,[11],higher heart mitochondrial membrane potential and contractility index
same,paraoxonase activity in serum,[12],inhibited
same,superoxide dismutase and thioredoxin reductase activity in serum,[12],enhanced activity of superoxide dismutase and thioredoxin reductase
same,age-related oxidative stress and inflammatory response,[13],prevented the accumulation of age-related oxidative stress and inflammatory response
same,DNA oxidative damage biomarker,[14],reduced the DNA oxidative damage biomarker
same,anti-lipid peroxidation activity,[15],80%
same,antitumor activity,[16],significant antitumor activity
same,urinary albumin level,[17],significantly lower than the control group
same,insulin sensitivity,[18],Improved insulin sensitivity
COc1ccc2cc3[n+](cc2c1OC)CCc1cc2c(cc1-3)OCO2 [berberine],alanine and aspartate transaminase levels,[19],reduces alanine and aspartate transaminase levels
same,"serum cholesterol, triglycerides and LDL-C",[20],"reduced serum cholesterol, triglycerides and LDL-C"
same,development of senescence,[21],significantly prevented the development of senescence
same,frequency and complexity of ventricular premature complexes,[22],decreased the frequency and complexity of ventricular premature complexes
same,left ventricular ejection fraction,[22],increased the left ventricular ejection fraction
same,cholesterol and triglyceride synthesis,[23],inhibit cholesterol and triglyceride synthesis
same,proliferation of MCF-7 breast cancer cells,[24],inhibits the proliferation
same,cholesterol excretion,[25],increases cholesterol excretion from the liver into the bile
same,adipocytes,[26],shrunk adipocytes
CN(C)C(=N)N=C(N)N [metformin],depressive symptoms,[27],improved depressive symptoms
same,reduction of incidence of T2DM compared to placebo,[28],31%
same,lifespan and health span,[29],extends both lifespan and health span
same,"body weight, LDL-cholesterol, atherosclerosis progression",[30],"reductions in body weight, LDL-cholesterol"
same,carotid artery intima-media thickness (primary outcome),[30],no difference in the primary outcome
same,aging in human cells,[31]; chronic low-dose treatment,delays aging in human cells
same,expression of GPx7,"[31]; low-dose treatment, by activating Nrf2",upregulates the expression of endoplasmic reticulum-localized GPx7
same,reduction of likelihood of CVD,[32]; otherwise healthy individuals,6%
same,reduction of likelihood of CVD,[32]; those at high cardiovascular risk,48%
same,reduction of likelihood of CVD,[32]; those at risk of frailty,18%
same,lifespan,[33],extends the lifespan of nematodes
same,"cognitive function, impact of long-term use",[34],did not show negative impact
Oc1ccc(C=Cc2cc(O)cc(O)c2)cc1 [resveratrol],growth rate of leukaemia cells,[35],stop the growth rate of leukaemia cells
same,uptake of glutamate,[36],increase the uptake of glutamate
